Values joined by “and” are separate entries in the source; they are usually repeats but may differ in a detail not shown here. Identical values can stand only once.

For orientation: viability, T/C means the ratio of treated to control. The term IC50 denotes the concentration that inhibits the measured activity by half.

This test relates to OVCAR-8 complex spheroid, growth inhibition. Put plainly: Anticancer human tumor OVCAR-8 cell line growth inhibition [Asc].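 As to all read-outs here: spheroids exposed to agents for 7 days before readout.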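 As to viability, T/C: percent viability relative to DMSO vehicle wells taken as 100%.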 As to conditions: for viability, T/C: stronger effect = lower value. The procedure:
Multicellular complex tumor spheroid response to apoptosis pathway targeting inhibitors Alrizomadlin, Pelcitoclax, and Dasminapant in combination with a variety of drugs and investigational agents in selected tumor cell lines
The MDM2 inhibitor alrizomadlin, the Bcl-2/Bcl-xL inhibitor pelcitoclax, and the IAPs inhibitor dasminapant were evaluated both individually and in combination with standard of care and investigational anticancer small molecules within a complex spheroid model of solid tumors. . Complex spheroids include a stromal component modeled by human endothelial cells (HUVEC) and fibroblasts modeled by human mesenchymal stem cells (MSCs). The concentration ranges selected for each drug and investigational agent were based upon clinically achievable concentrations if the clinical Cmax of the agent was known.
Compounds. The drugs and investigational agents: alrizomadlin (APG-115; NSC831270), pelcitoclax (APG-1252; NSC835773), dasminapant (APG-1387;NSC834197), TAK-243 (NSC785004), copanlisib (NSC809693), olaparib (NSC753686), talazoparib (NSC767125), cobimetinib (NSC 768068), eltanexor (KPT-8602, NSC 794443), abemaciclib (NSC 768073), sotorasib (NSC818433), adagrasib (NSC 831453), MRTX-1133 (NSC 836407), Iadademestat (ORY1001, NSC 806812), and RMC-4630 (NSC839698), were obtained from the NCI Developmental Therapeutics Program Chemical Repository. The FDA-approved anticancer drug set is available from the Developmental Therapeutics Program at https://dtp.cancer.gov/organization/dscb/obtaining/available plates.htm. […] The stock solutions were prepared in dimethyl sulfoxide (DMSO, Sigma-Aldrich, St. Louis, MO, cat. D2650) at 800-fold the tested concentration and stored at -70 degrees C prior to their use. All drugs and investigational agents were tested over a range starting from a high concentration at or near the clinical Cmax and decreasing in half-log increments. If the clinical Cmax for an agent had not been determined, the highest concentration tested was 10 microM.
The patient-derived cancer (PDC) cell lines include five colon adenocarcinomas: 186277-243-T-J2-PDC, 616215-338-R-J1-PDC, 439559-082-T-J2-PDC, 463943-066-T-J2-PDC, and 519858-162-T-J1-PDC; three pancreatic carcinomas: 323965-272-R-J2-PDC, 521955-158-R6-J3-PDC, and 521955-158-R2-J5-PDC; two uterine sarcomas: 327498-152-R-J2-PDC and 993429-296-R-J1-PDC; two rhabdomyosarcomas: 755483-174-R-J1-PDC and 772245-204-R-J1-PDC; two soft tissue sarcomas: 126254-015-R-J1-PDC and 494315-158-R-J1-PDC; two malignant fibrous histiocytomas: 317291-083-R-J1-PDC and 596521-263-R-J1-PDC; two breast carcinomas: 171881-019-R-J1-PDC and 885512-296-R-J2-PDC; and one ovarian carcinoma: 6556581-035-R-J-PDC were obtained from the NCI PDMR, (https://pdmr.cancer.gov). The established cell lines HSSY-2 synovial sarcoma (RRID:CVCL 8719), SYO-1 synovial sarcoma (RRID:CVCL_7146), MPNST malignant peripheral neural sheath tumor were obtained from the Sloan Kettering Institute. The following established cell lines were purchased from the American Type Culture Collection (ATCC, Manassas, VA), Sor the received from the NCI repository:, PANC-1 pancreatic carcinoma (CRL-1469, RRID:CVCL_0480), OVCAR-5 ovarian carcinoma (RRID:CVCL_1628), OVCAR-8 ovarian carcinoma (RRID:CVCL_1629), , MCF-7 breast carcinoma (CRL-12584, RRID:CVCL_0031), MDA-MB-231 breast carcinoma (CRL-12532, RRID:CVCL_0062), NCI-H1876 small cell lung carcinoma (CRL-5902, RRID:CVCL_1503), NCI-H510A small cell lung carcinoma (HTB-184, RRID:CVCL_1565), NCI-H1417 (CRL-5869, RRID:CVCL_1469), and NCI-H196 small cell lung carcinoma (CRL-5823, RRID:CVCL_1509). Dr. Peter Houghton (Greehey Children's Cancer Research Institute, University of Texas Health Science Center, San Antonio, TX) provided Rh-18 rhabdomyosarcoma (RRID:CVCL_1659). Pooled donor human umbilical vein endothelial cells (HUVEC, Lonza, cat. CC-2519) and human mesenchymal stem cells (hMSC, Lonza, cat. PT-2501) were purchased from Lonza (Walkersville, MD).
Cell Culture. […]

As for `C#Cc1c(F)ccc2cc(O)cc(-c3ncc4c(N5CC6CCC(C5)N6)nc(OCC56CCCN5CC(F)C6)nc4c3F)c12` (stereo not given), the viability, T/C reads like this: (compound 0.0316 µM) 110% and 90.4% and 96.5%; (compound 0.1 µM) 95.6% and 80.1% and 97.5%; (compound 0.316 µM) 101% and 110% and 87%; (compound 1 µM) 110% and 94.2% and 95%; (compound 3.16 µM) 93.7% and 83.9% and 94.7%; (compound 10 µM) 116% and 98.9% and 85.9%. For the setting “curve of compound”, the IC50 was over 10 µM.

On to `CNC(C)C(=O)NC1CN(S(=O)(=O)c2cccc(S(=O)(=O)N3CCC4CCC(C(=O)NC(c5ccccc5)c5ccccc5)N4C(=O)C(NC(=O)C(C)NC)C3)c2)CCC2CCC(C(=O)NC(c3ccccc3)c3ccccc3)N2C1=O` (stereo not given), for which the half-maximal inhibitory concentration (IC50) (curve of compound) was over 1 µM.

For the compound `Cc1c(S(C)(=O)=O)c(-c2cc(F)cc(N3CCN(c4ccc(NS(=O)(=O)c5ccc(NC(CCN6CCC(C(=O)OCCCP(=O)(O)O)CC6)CSc6ccccc6)c(S(=O)(=O)C(F)(F)F)c5)cc4)CC3)c2)c(-c2ccc(Cl)cc2)n1C(C)C` (stereo not given), the viability, T/C (compound 0.0316 µM) is 91.2% [middle of 7 runs]; the viability, T/C (compound 0.1 µM) was 94% [middle of 7 runs]; the viability, T/C (compound 1 µM) is 98.1% [middle of 7 runs]; the viability, T/C (compound 3.16 µM) is 104% [middle of 7 runs]. Also, for the setting “compound alone, run of 11/07/2022”, the IC50 is over 10 µM.

Consider `O=C(c1cc(Cc2n[nH]c(=O)c3ccccc23)ccc1F)N1CCN(C(=O)C2CC2)CC1` + CCN1C(C(=O)NC23CCC(C(=O)O)(CC2)CC3)C(c2cccc(Cl)c2F)C2(C(=O)Nc3cc(Cl)ccc32)C12CCCCC2, for which the IC50 by setting is: (curve of first compound, second compound 0.00949 µM) over 10 µM; (curve of first compound, second compound 0.03 µM) over 10 µM; (curve of first compound, second compound 0.0949 µM) over 10 µM; (curve of first compound, second compound 0.3 µM) over 10 µM; (curve of first compound, second compound 0.949 µM) over 10 µM; (curve of first compound, second compound 3 µM) over 10 µM. Besides, the viability, T/C (second compound 0.00949 µM, first compound 0.0316 µM) was 99.8%; the viability, T/C (second compound 0.00949 µM, first compound 0.1 µM) is 86%; the viability, T/C (second compound 0.00949 µM, first compound 0.316 µM) was 85.7%; the viability, T/C (second compound 0.00949 µM, first compound 1 µM) was 98.2%; the viability, T/C (second compound 0.00949 µM, first compound 3.16 µM) is 97.8%; the viability, T/C (second compound 0.00949 µM, first compound 10 µM) was 102%. Also, the viability, T/C is, setting by setting: (second compound 0.03 µM, first compound 0.0316 µM) 93.2%; (second compound 0.03 µM, first compound 0.1 µM) 94%; (second compound 0.03 µM, first compound 0.316 µM) 87.5%; (second compound 0.03 µM, first compound 1 µM) 100%; (second compound 0.03 µM, first compound 3.16 µM) 119%; (second compound 0.03 µM, first compound 10 µM) 102%. Besides, the viability, T/C is, setting by setting: (second compound 0.0949 µM, first compound 0.0316 µM) 101%; (second compound 0.0949 µM, first compound 0.1 µM) 91.7%; (second compound 0.0949 µM, first compound 0.316 µM) 94.2%; (second compound 0.0949 µM, first compound 1 µM) 87.6%; (second compound 0.0949 µM, first compound 3.16 µM) 120%; (second compound 0.0949 µM, first compound 10 µM) 115%. The viability, T/C was 85.2% (second compound 0.3 µM, first compound 0.0316 µM); 85.9% (second compound 0.3 µM, first compound 0.1 µM); 93.3% (second compound 0.3 µM, first compound 0.316 µM); 91.4% (second compound 0.3 µM, first compound 1 µM); 103% (second compound 0.3 µM, first compound 3.16 µM); 120% (second compound 0.3 µM, first compound 10 µM). Moreover, the viability, T/C (second compound 0.949 µM, first compound 0.0316 µM) was 99.6%; the viability, T/C (second compound 0.949 µM, first compound 0.1 µM) was 108%; the viability, T/C (second compound 0.949 µM, first compound 0.316 µM) was 105%; the viability, T/C (second compound 0.949 µM, first compound 1 µM) is 95.5%; the viability, T/C (second compound 0.949 µM, first compound 3.16 µM) was 96.3%; the viability, T/C (second compound 0.949 µM, first compound 10 µM) is 114%. For the same compound, the viability, T/C runs as follows: (second compound 3 µM, first compound 0.0316 µM) 115%; (second compound 3 µM, first compound 0.1 µM) 104%; (second compound 3 µM, first compound 0.316 µM) 114%; (second compound 3 µM, first compound 1 µM) 103%; (second compound 3 µM, first compound 3.16 µM) 125%; (second compound 3 µM, first compound 10 µM) 107%.

The values above are taken from PubChem BioAssay AID1963437 (Molecular Pharmacology Branch, DTP, NCI, 2024).
